Data from patent publication US20100029654A1, “CARDIOVASCULAR COMPOSITIONS AND USE OF THE SAME FOR THE TREATMENT OF ALZHEIMER'S DISEASE” (MOUNT SINAI SCHOOL OF MEDICINE, priority 2006, published 2010).
Counter-ions that a name gives are not always drawn. Like-named read-outs stand apart in the source and are kept apart here.

Tests used:
[1] = test system: primary cortico-hippocampal neuron cultures; assay: lactate dehydrogenase (LDH) activity assay in parallel neuron cultures
Aβ1-40 = Aβ1-40 content in conditioned medium of primary cortico-hippocampal neuron cultures from Tg2576 mice (ELISA; primary and secondary dose-response screening); assay type: cell-based, mouse; conditions: for activity at 100 µM: Mus musculus, Neuron, 24 h, read-out: Ab1-40 (% of ctl); for activity at 100 µM / Ab1-40 (% of ctl): drug 100 μM; for reduced Aβ1-40: <85% of ctl
Procedure, shortened: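 Primary cortico-hippocampal neurons from embryonic Tg2576 mice were plated at 1.0×10^5 cells per well on poly-D-lysine-coated 96-well plates in Neurobasal with 2% B27, 0.5 mM L-glutamine and 1% penicillin-streptomycin. Cultures received drug in 1% DMSO, and Aβ1-40 in the conditioned medium was measured by BioSource ELISA 24 hours after treatment, relative to vehicle controls.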

Aβ1-42 = Aβ1-42 content in conditioned medium of primary cortico-hippocampal neuron cultures from Tg2576 mice (ELISA; primary and secondary dose-response screening); assay type: cell-based, mouse; conditions: for activity at 100 µM: Mus musculus, Neuron, 24 h, read-out: Ab1-42 (% of ctl); for activity at 100 µM / Ab1-42 (% of ctl): drug 100 μM; for reducing Aβ1-42: <85% of ctl
Procedure, shortened: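 This screen tested cardiovascular drugs for Aβ-lowering in Tg2576 embryonic cortico-hippocampal neuron cultures plated at 1.0×10^5 cells per well in poly-D-lysine-coated 96-well plates with Neurobasal/B27 medium. Drugs at 100 μM were added directly to the medium in duplicate, with 1% DMSO alone as the control. Conditioned medium was then collected, and its Aβ1-42 level was quantified with BioSource ELISA kits.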

[2] = test system: primary cortico-hippocampal neuron cultures; assay: MTT in primary screening
[3] = Primary Screening, table sorted by Aβ1-40
[4] = primary screening, table sorted by Aβ1-42
[5] = primary screening, Tg2576 neuron cultures, table sorted by Aβ1-42

Structure (SMILES)	LDH (% of ctl) [1, 3]	LDH (% of ctl) [1, 4]	activity at 100 µM (Aβ1-40; [3]) [%]	activity at 100 µM (Aβ1-40; [5]) [%]	activity at 100 µM (Aβ1-42; [3]) [%]	activity at 100 µM (Aβ1-42; [5]) [%]	MTT (% of ctl) [2, 3]	MTT (% of ctl) [2, 4]	reducing Aβ1-42 (Aβ1-42; primary screening)	reduced Aβ1-40 (Aβ1-40; primary screening)	Ab1-40 (% of ctl) (Aβ1-40; [3])	Ab1-40 (% of ctl) (Aβ1-40; [5])	Ab1-42 (% of ctl) (Aβ1-42; [3])	Ab1-42 (% of ctl) (Aβ1-42; [5])
CCCc1nc2c(C)cc(-c3nc4ccccc4n3C)cc2n1Cc1ccc(-c2ccccc2C(=O)O)cc1 [Telmisartan]	111.3 % of ctl	111.3 % of ctl	91.1	91.1	112	112	109.4 % of ctl	109.4 % of ctl						
CCCC(=O)Nc1ncnc2c1ncn2[C@@H]1O[C@@H]2COP(=O)(O)O[C@H]2[C@H]1OC(=O)CCC [Bucladesine]	357.1 % of ctl	357.1 % of ctl	85.3	85.3	69.9	69.9	97.2 % of ctl	97.2 % of ctl	useful in reducing Aβ1-42					
Cc1cccc(Nc2ccncc2S(=O)(=O)NC(=O)NC(C)C)c1 [Torsemide]	107.5 % of ctl	107.5 % of ctl	107	107	104	104	99.2 % of ctl	99.2 % of ctl						
CC(N)CCCC(C)(C)O (centres unmarked) [Heptaminol Hydrochloride]	103.4 % of ctl	103.4 % of ctl	112	112	105	105	103.4 % of ctl	103.4 % of ctl						
O=C1c2ccccc2C(=O)C1c1ccccc1 [Phenindione]	107.9 % of ctl	107.9 % of ctl	104	104	105	105	108.8 % of ctl	108.8 % of ctl						
COC(=O)[C@H]1[C@H]2C[C@H]3c4[nH]c5ccccc5c4CCN3C[C@H]2CC[C@@H]1O [Rauwolscine Hydrochloride]	109.4 % of ctl	109.4 % of ctl	103	103	74.3	74.3	98.0 % of ctl	98.0 % of ctl	useful in reducing Aβ1-42					
CC(C)(C)NCC(O)COc1cccc2[nH]c(=O)[nH]c12 (centres unmarked) [2-HYDROXY-4-(2-HYDROXY-3-T-BUTYLAMINOPROPOXY)-BENZIMIDAZOLE]	109.3 % of ctl	109.3 % of ctl	99.2	99.2	104	104	97.1 % of ctl	97.1 % of ctl						
CCOC(=O)[C@H](CCc1ccccc1)N[C@@H](C)C(=O)N1[C@H](C(=O)O)C[C@@H]2CCC[C@@H]21 [Ramipril]	96.4 % of ctl	96.4 % of ctl	107	107	105	105	102.9 % of ctl	102.9 % of ctl						
COc1cc([S+](C)[O-])ccc1-c1nc2ncccc2[nH]1 (centres unmarked) [Sulmazole]	111.1 % of ctl	111.1 % of ctl	116	116	93.2	93.2	115.0 % of ctl	115.0 % of ctl						
C[C@@H]1CCC[C@H](C)N1NC(=O)c1ccc(Cl)c(S(N)(=O)=O)c1 [Clopamide]	99.9 % of ctl	99.9 % of ctl	92	92	98.9	98.9	99.2 % of ctl	99.2 % of ctl						
CCC(C)(C)C(=O)O[C@H]1C[C@@H](C)C=C2C=C[C@H](C)[C@H](CC[C@@H]3C[C@@H](O)CC(=O)O3)[C@H]21 [Simvastatin]	129.9 % of ctl	129.9 % of ctl	28	28	122	122	93.4 % of ctl	93.4 % of ctl						
O=c1cc(-c2ccccc2)oc2cc(O)cc(O)c12 [Chrysin]	118.3 % of ctl	118.3 % of ctl	71.6	71.6	83.4	83.4	84.5 % of ctl	84.5 % of ctl						
Cc1cc(C(C)(C)C)c(O)c(C)c1CC1=NCCN1 [Oxymetazoline Hydrochloride]	97.0 % of ctl	97.0 % of ctl	78	78	44.9	44.9	97.3 % of ctl	97.3 % of ctl	useful in reducing Aβ1-42	reduced Aβ1-40				
COc1cc2ccc(=O)oc2cc1O [Scopoletin]	106.2 % of ctl	106.2 % of ctl	71.9	71.9	109	109	99.7 % of ctl	99.7 % of ctl		reduced Aβ1-40				
CC(C)c1c(C(=O)Nc2ccccc2)c(-c2ccccc2)c(-c2ccc(F)cc2)n1CC[C@@H](O)C[C@@H](O)CC(=O)[O-].CC(C)c1c(C(=O)Nc2ccccc2)c(-c2ccccc2)c(-c2ccc(F)cc2)n1CC[C@@H](O)C[C@@H](O)CC(=O)[O-].[Ca+2] [Atorvastatin Calcium]	99.4 % of ctl	99.4 % of ctl					98.4 % of ctl	98.4 % of ctl	useful in reducing Aβ1-42	reduced Aβ1-40	66.0 % of ctl	66.0 % of ctl	76.9 % of ctl	76.9 % of ctl
Nc1cc(N2CCCCC2)nc(N)[n+]1[O-] [Minoxidil]	117.1 % of ctl	117.1 % of ctl	94.2	94.2	98.9	98.9	98.5 % of ctl	98.5 % of ctl						
CN1C[C@H](CNC(=O)OCc2ccccc2)C[C@@H]2c3cccc4c3c(cn4C)C[C@H]21 [Metergoline]	159.3 % of ctl	159.3 % of ctl	-3.1	-3.1	2.3	2.3	76.5 % of ctl	76.5 % of ctl	useful in reducing Aβ1-42	reduced Aβ1-40				
CCOC(=O)NNc1nncc2ccccc12 [Todralazine Hydrochloride]	100.6 % of ctl	100.6 % of ctl	105	105	110	110	99.5 % of ctl	99.5 % of ctl						
CCCc1nc(C(C)(C)O)c(C(=O)OCc2oc(=O)oc2C)n1Cc1ccc(-c2ccccc2-c2nnn[nH]2)cc1 [Olmesartan Medoxomil]	90.7 % of ctl	90.7 % of ctl	83.9	83.9	70.7	70.7	90.7 % of ctl	90.7 % of ctl	useful in reducing Aβ1-42	reduced Aβ1-40				
COc1ccccc1N1CCN(CCCNc2cc(=O)n(C)c(=O)n2C)CC1 [Urapidil]	97.1 % of ctl	97.1 % of ctl	96.4	96.4	114	114	103.4 % of ctl	103.4 % of ctl						
CCN(CC)CCNC(=O)c1ccc(N)cc1 [Procainamide Hydrochloride]	111.1 % of ctl	111.1 % of ctl	118	118	109	109	96.8 % of ctl	96.8 % of ctl						
